Reference: patent publication US20180296630A1, “METHODS AND COMPOSITIONS FOR PREVENTING OR TREATING OPHTHALMIC CONDITIONS” (Stealth BioTherapeutics Corp, priority 2012, published 2018)

Assays:
caspase-3 in HRECs = assay: Caspase-3 protein expression in high glucose-treated HRECs (Western blot); type: cell-based, human; conditions: 30 mM glucose co-treatment; 24 h and 48 h; p<0.05
Experimental: The level of cleaved caspase-3 protein expression was measured by Western blot (FIG. 5A). When HRECs were exposed to 30 mM glucose for 24 h and 48 h, the level of caspase-3 expression increased dramatically.

STZ diabetic rats = assay: Lens opacity (cataract) in STZ rat model; type: in vivo, Sprague-Dawley rat; conditions: 10 mg (Table 11: 10 mg/kg s.c.)
Experimental: (§1) A rat model of diabetes was established by combination of 6-week HFD and low dose of STZ (30 mg/kg) injection or a single high dose of STZ (65 mg/kg) in SD rats. See generally, K. Srinivasan, B. Viswanad, Lydia Asrat, C. L. Kaul and P. Ramarao, Combination of high-fat diet-fed and low-dose streptozotocin-treated rat: A model for type 2 diabetes and pharmacological screening, Pharmacological Research, 52(4): 313-320, 2005. Rats of the same batch fed with normal chow (NRC) were used as a control.

[1] = system: STZ and HFD/STZ diabetic rats; assay: Lens epithelium changes in diabetic SD rats; type: in vivo, Sprague-Dawley rat; conditions: STZ rat model and HFD/STZ rat model
Experimental: as §1
The effect of the aromatic cationic peptides on lens epithelium in the SD rat model was investigated. Administration of D-Arg-2′,6′-Dmt-Lys-Phe-NH2 reduced epithelial cellular changes in both STZ rat model (FIG. 8) and HFD/STZ rat model (FIG. 9).

GTM cells = assay: TMRM fluorescence (mitochondrial membrane potential), acute H2O2 injury, FACS, GTM cells; type: cell-based, human; conditions: n=4
Description: Methods to measure mitochondrial membrane potential using TMRM useful in the studies of the present invention have been described by Andrea Rasola and Massimo Geuna, A flow cytometry assay simultaneously detects independent apoptotic parameters, Cytometry 45:151-157, 2001; Mitoprobe™ JC-1 Kit for Flow Cytometry, Molecular Probes, Invitrogen, USA.
The mitochondrial membrane potential (Δψm) of HTM and GTM cells was investigated when those cells were exposed to hydrogen peroxide prior to administration of D-Arg-2′,6′-Dmt-Lys-Phe-NH2. First, the mitochondrial membrane potential was measured using confocal microscopy of cells labeled with tetramethylrhodamine methyl ester (TMRM, 500 nM×30 min) (FIG. 15). The mitochondrial membrane potential was also measured using flow cytometry (FIGS. 16-17) by labeling cells with the mitochondrion-selective probe tetramethylrhodamine methyl ester (TMRM, 500 nM×30 min).
The effects of D-Arg-2′,6′-Dmt-Lys-Phe-NH2 at mitigating acute oxidative injury in GTM and HTM cells was investigated. […] The percentage of fluorescence intensity compared to GTM control in H2O2, D-Arg-2′,6′-Dmt-Lys-Phe-NH2 10^−6M, D-Arg-2′,6′-Dmt-Lys-Phe-NH2 10^−7M, D-Arg-2′,6′-Dmt-Lys-Phe-NH2 10^−8M were 35.2±2.12%, 56.2±4.04%, 50.3±4.46%, 47.5±2.82% respectively, n=4; the HTM groups were 37.4±0.725%, 57.7±1.80%, 50.6±3.06%, 49.4±2.27% respectively, n=4. ** means P<0.01 compared to GTM H2O2 group; * means P<0.05 compared to GTM H2O2 group; ▴ ▴ ▴ means P<0.001 compared to HTM H2O2 group.

GTM3 cells = assay: ROS production, sustained oxidative injury by H2O2, GTM3 cells; type: cell-based, human; conditions: then 200 μM H2O2 24 h
Experimental: (§2) The effects of D-Arg-2′,6′-Dmt-Lys-Phe-NH2 on sustained oxidative injury of GTM and HTM cells was examined. Cells were pre-treated with 10^−6, 10^−7, 10^−8M of D-Arg-2′,6′-Dmt-Lys-Phe-NH2 for 1 h, and then incubated with 200 μM H2O2 for 24 h to investigate the protective effect of D-Arg-2′,6′-Dmt-Lys-Phe-NH2 in sustained oxidative stress.

iHTM cells = assay: MMP decline, sustained oxidative injury by H2O2, iHTM cells; type: cell-based, human; conditions: then 200 μM H2O2 24 h
Experimental: as §2

GTM and HTM cells = assay: Oxidative stress induced by hydrogen peroxide in GTM and HTM cells (collective conclusion); type: cell-based, human
Experimental: The cells were divided into three groups: “Group A” cells were exposed to hydrogen peroxide prior to administration of D-Arg-2′,6′-Dmt-Lys-Phe-NH2. “Group B” cells were exposed to D-Arg-2′,6′-Dmt-Lys-Phe-NH2 prior to administration of hydrogen peroxide. “Group C” cells were administered D-Arg-2′,6′-Dmt-Lys-Phe-NH2 and hydrogen peroxide simultaneously.
as §2

D-Arg-2′,6′-Dmt-Lys-Phe-NH2
caspase-3 protein level (caspase-3 in HRECs): marked decrease
Opacity degree ++++, number in group (STZ diabetic rats): 1
Opacity degree +++, number in group (STZ diabetic rats): 0
Opacity degree ++, number in group (STZ diabetic rats): 0
Opacity degree +, number in group (STZ diabetic rats): 2
Opacity degree −, number in group (STZ diabetic rats): 2
Percentage of opacity (STZ diabetic rats): 60.0%
Percentage of severe opacity (STZ diabetic rats): 20.0%
epithelial cellular changes of the lens epithelium [1]: reduced
percentage of TMRM fluorescence intensity compared to GTM control (GTM cells; 10^−6M): 56.2±4.04%
percentage of TMRM fluorescence intensity compared to GTM control (GTM cells; 10^−7M): 50.3±4.46%
percentage of TMRM fluorescence intensity compared to GTM control (GTM cells; 10^−8M): 47.5±2.82%
ROS Production (GTM3 cells; 0.01 μM pre-treatment 1 h): 133.70 ± 3.24 %
ROS Production (GTM3 cells; 0.1 μM pre-treatment 1 h): 68.91 ± 8.62 %
ROS Production (GTM3 cells; 1 μM pre-treatment 1 h): 47.40 ± 1.81 %
MMP Decline (iHTM cells; 0.01 μM pre-treatment 1 h): −58.24 ± 2.62 %
MMP Decline (iHTM cells; 0.1 μM pre-treatment 1 h): −53.24 ± 2.52 %
MMP Decline (iHTM cells; 1 μM pre-treatment 1 h): −44.99 ± 2.19 %
concentration at which sustained and acute oxidative stress induced by hydrogen peroxide can be prevented (GTM and HTM cells): > 10^−9 M
